Test results taken from US12655174B2, “Adenosine A3 receptor agonists, preparation methods and uses thereof” (ZHEJIANG VIMGREEN PHARMACEUTICALS, LTD., priority 2020, dated 2026).

Assay: Pharmacokinetic test of compound in SD rat
Type: in vivo
Conditions: SD rats, intragastric administration (IG), cassette dosing
Protocol: Example 28: Pharmacokinetic Test of Compound in SD Rat
The animal species used in this experiment were SD rats. There were 3 animals per group. The rats were dosed in cassette format, i.e., multiple (1-6) different compounds were dosed simultaneously to the same group of the SD rats. The vehicle used for the drug was 5% DMSO+5% Solutl+90% ([…] methylcellulose M450), and the administration route was intragastric administration (IG).
In the case of `CCNC(=O)[C@H]1O[C@@H](n2cnc3c(NC)nc(-c4ccsc4)nc32)[C@H](O)[C@@H]1O` [compound 77, (2S,3S,4R,5R)-N-ethyl-3,4-dihydroxyl-5-(6-(methylamino)-2-(thiophen-3-yl)-9H-purin-9-yl)tetrahydrofuran-2-carboxamide], the “AUC_D” value is reported as 81.00 kg·ng·h/mL/mg.
With `[2H]C([2H])([2H])NC(=O)[C@H]1O[C@@H](n2cnc3c(NCc4ccccc4)nc(-c4cncc(F)c4)nc32)[C@H](O)[C@@H]1O` [compound 32, (2S,3S,4R,5R)-5-(6-(benzylamino)-2-(5-fluoropyridin-3-yl)-9H-purin-9-yl)-3,4-dihydroxyl-N-(methyl-d3)-tetrahydrofuran-2-formamide] the “AUC_D” value was 1384.00 kg·ng·h/mL/mg.
With `CNC(=O)[C@H]1O[C@@H](n2cnc3c(NCc4ccc(F)c(F)c4)nc(-c4cncc(Cl)c4)nc32)[C@H](O)[C@@H]1O` [compound 322, (2S,3S,4R,5R)-5-(2-(5-chloropyridin-3-yl)-6-((3,4-difluorobenzyl)amino)-9H-purin-9-yl)-3,4-dihydroxyl-N-methyltetrahydrofuran-2-carboxamide] the “AUC_D” value was 97.03 kg·ng·h/mL/mg.
In the case of `[2H]C([2H])([2H])NC(=O)[C@H]1O[C@@H](n2cnc3c(NCc4cc(Cl)cc(Cl)c4)nc(-c4cncc(Cl)c4)nc32)[C@H](O)[C@@H]1O` [compound 240, (2S,3S,4R,5R)-5-(2-(5-chloropyridin-3-yl)-6-(3,5-dichlorobenzylamino)-9H-purin-9-yl)-3,4-dihydroxyl-N-(methyl-d3)-tetrahydrofuran-2-carboxamide], the “AUC_D” value is reported as 1024.58 kg·ng·h/mL/mg.
With `CNC(=O)[C@H]1O[C@@H](n2cnc3c(NCc4cccc(Cl)c4)nc(-c4cncc(Cl)c4)nc32)[C@H](O)[C@@H]1O` [compound 209, (2S,3S,4R,5R)-5-(6-((3-chlorobenzyl))amino-2-(5-chloropyridin-3-yl)-9H-purin-9-yl)-3,4-dihydroxyl-N-methyltetrahydrofuran-2-carboxamide] the “AUC_D” value was 1347.60 kg·ng·h/mL/mg.
With `[2H]C([2H])([2H])NC(=O)[C@H]1O[C@@H](n2cnc3c(NCc4cccc(C)n4)nc(-c4cncc(Cl)c4)nc32)[C@H](O)[C@@H]1O` [compound 271, (2S,3S,4R,5R)-5-(2-(5-chloropyridin-3-yl)-6-((6-methylpyridin-2-yl)methylamino)-9H-purin-9-yl)-3,4-dihydroxyl-N-(methyl-d3)-tetrahydrofuran-2-carboxamide] the “AUC_D” value was 1131.18 kg·ng·h/mL/mg.
With `[2H]C([2H])([2H])NC(=O)[C@H]1O[C@@H](n2cnc3c(NC([2H])([2H])[2H])nc(-c4ccoc4)nc32)[C@H](O)[C@@H]1O` [compound 97, (2S,3S,4R,5R)-5-(2-(furan-3-yl)-6-((methyl-d3)amino)-9H-purin-9-yl)-3,4-dihydroxyl-N-(methyl-d)tetrahydrofuran-2-carboxamide] the “AUC_D” value was 115.00 kg·ng·h/mL/mg.
With `[2H]C([2H])([2H])NC(=O)[C@H]1O[C@@H](n2cnc3c(NCc4ccccc4)nc(-c4cncc(CC)c4)nc32)[C@H](O)[C@@H]1O` [compound 34, (2S,3S,4R,5R)-5-(6-(benzylamino)-2-(5-ethylpyridin-3-yl)-9H-purin-9-yl)-3,4-dihydroxyl-N-(methyl-d3)-tetrahydrofuran-2-formamide] the “AUC_D” value was 578.00 kg·ng·h/mL/mg.
With `CNC(=O)[C@H]1O[C@@H](n2cnc3c(NCc4cccc(C)n4)nc(-c4cncc(C)c4)nc32)[C@H](O)[C@@H]1O` [compound 295, (2S,3S,4R,5R)-3,4-dihydroxyl-N-methyl-5-(6-(((6-methylpyridin-2-yl)methyl)amino)-2-(5-methylpyridin-3-yl)-9H-purin-9-yl)tetrahydrofuran-2-carboxamide] the “AUC_D” value was 610.66 kg·ng·h/mL/mg.
In the case of `CCNC(=O)[C@H]1O[C@@H](n2cnc3c(N)nc(-c4cncc(Cl)c4)nc32)[C@H](O)[C@@H]1O` [compound 324, (2S,3S,4R,5R)-5-(6-amino-2-(5-chloropyridin-3-yl)-9H-purin-9-yl)-N-ethyl-3,4-dihydroxyltetrahydrofuran-2-formamide], the “AUC_D” value is reported as 78.00 kg·ng·h/mL/mg.
With `CNC(=O)[C@H]1O[C@@H](n2cnc3c(NCc4ccccc4)nc(-c4cncc(F)c4)nc32)[C@H](O)[C@@H]1O` [compound 153, (2S,3S,4R,5R)-5-(6-(benzylamino)-2-(5-fluoropyridin-3-yl)-9H-purin-9-yl)-3,4-dihydroxyl-N-methyltetrahydrofuran-2-carboxamide] the “AUC_D” value was 829.00 kg·ng·h/mL/mg.
In the case of `[2H]C([2H])([2H])NC(=O)[C@H]1O[C@@H](n2cnc3c(NCc4cc(C)ccn4)nc(-c4cncc(Cl)c4)nc32)[C@H](O)[C@@H]1O` [compound 215], the “AUC_D” value is reported as 785.90 kg·ng·h/mL/mg.
In the case of `CONC(=O)[C@H]1O[C@@H](n2cnc3c(NCc4cccc(I)c4)ncnc32)[C@H](O)[C@@H]1O` [compound 3, (2S,3S,4R,5R)-5-(6-(3-iodobenzylamino)-9H-purin-9-yl)-3,4-dihydroxyl-N-methoxy-tetrahydrofuran-2-formamide], the “AUC_D” value is reported as 152.40 kg·ng·h/mL/mg.
For `CNC(=O)[C@H]1O[C@@H](n2cnc3c(NCc4cccc(C(F)(F)F)c4)nc(-c4cncc(OC)c4)nc32)[C@H](O)[C@@H]1O` [compound 181, (2S,3S,4R,5R)-5-(6-(3-(trifluoromethyl)benzylamino)-2-(5-methoxypyridin-3-yl)-9/-purin-9-yl)-3,4-dihydroxyl-N-methyl-tetrahydrofuran-2-formamide], the “AUC_D” value was 72.67 kg·ng·h/mL/mg.
For `CCNC(=O)[C@H]1O[C@@H](n2cnc3c(NC)nc(-c4ccc(OC)nc4)nc32)[C@H](O)[C@@H]1O` [compound 58, (2S,3S,4R,5R)-N-ethyl-3,4-dihydroxyl-5-(2-(6-methoxypyridin-3-yl)-6-(methylamino)-9H-purin-9-yl)tetrahydrofuran-2-carboxamide], the “AUC_D” value was 110.00 kg·ng·h/mL/mg.
With `[2H]C([2H])([2H])NC(=O)[C@H]1O[C@@H](n2cnc3c(NCc4cc(F)cc(Cl)c4)nc(-c4cncc(Cl)c4)nc32)[C@H](O)[C@@H]1O` [compound 241, (2S,3S,4R,5R)-5-(6-(3-chloro-5-fluorobenzylamino)-2-(5-chloropyridin-3-yl)-9H-purin-9-yl)-3,4-dihydroxyl-N-(methyl-d3)-tetrahydrofuran-2-carboxamide] the “AUC_D” value was 440.67 kg·ng·h/mL/mg.
In the case of `CNC(=O)[C@H]1O[C@@H](n2cnc3c(NCc4ccccc4)nc(-c4cncc(Cl)c4)nc32)[C@H](O)[C@@H]1O` [compound 150, (2S,3S,4R,5R)-5-(6-(benzylamino)-2-(5-chloropyridin-3-yl)-9H-purin-9-yl)-3,4-dihydroxyl-N-methyltetrahydrofuran-2-carboxamide], the “AUC_D” value is reported as 1821.60 kg·ng·h/mL/mg.
In the case of `[2H]C([2H])([2H])NC(=O)[C@H]1O[C@@H](n2cnc3c(NCCC)nc(-c4cncc(Cl)c4)nc32)[C@H](O)[C@@H]1O` [compound 285, (2S,3S,4R,5R)-5-(2-(5-chloropyridin-3-yl)-6-(propylamino)-9H-purin-9-yl)-3,4-dihydroxyl-N-(methyl-d3)-tetrahydrofuran-2-carboxamide], the “AUC_D” value is reported as 175.00 kg·ng·h/mL/mg.
For `[2H]C([2H])([2H])NC(=O)[C@H]1O[C@@H](n2cnc3c(NC(C)C)nc(-c4cncc(Cl)c4)nc32)[C@H](O)[C@@H]1O` [compound 319, (2S,3S,4R,5R)-5-(2-(5-chloropyridin-3-yl)-6-(isopropylamino)-9H-purin-9-yl)-3,4-dihydroxyl-N-(methyl-d3)tetrahydrofuran-2-carboxamide], the “AUC_D” value was 74.00 kg·ng·h/mL/mg.
In the case of `[2H]C([2H])([2H])NC(=O)[C@H]1O[C@@H](n2cnc3c(NCc4cocn4)nc(-c4cncc(Cl)c4)nc32)[C@H](O)[C@@H]1O` [compound 257, (2S,3S,4R,5R)-5-(2-(5-chloropyridin-3-yl)-6-((oxazol-4-ylmethyl)amino)-9H-purin-9-yl)-3,4-dihydroxyl-N-(methyl-d3)tetrahydrofuran-2-carboxamide], the “AUC_D” value is reported as 96.00 kg·ng·h/mL/mg.
For `CNC(=O)[C@H]1O[C@@H](n2cnc3c(NCc4cccc(OC)c4)nc(-c4cncc(Cl)c4)nc32)[C@H](O)[C@@H]1O` (stereo in doubt) [compound 213, (2S,3S,4R,5S)-5-(2-(5-chloropyridin-3-yl)-6-((3-methoxybenzyl)amino)-9/-purin-9-yl)-3,4-dihydroxyl-N-methyltetrahydrofuran-2-carboxamide], the “AUC_D” value was 360.90 kg·ng·h/mL/mg.
With `CNC(=O)[C@H]1O[C@@H](n2cnc3c(NCc4ccccc4)nc(-c4ccc(C)nc4)nc32)[C@H](O)[C@@H]1O` [compound 120, (2S,3S,4R,5R)-5-(6-(benzylamino)-2-(6-methylpyridin-3-yl)-9H-purin-9-yl)-3,4-dihydroxyl-N-methyltetrahydrofuran-2-carboxamide] the “AUC_D” value was 86.00 kg·ng·h/mL/mg.
For `[2H]C([2H])([2H])NC(=O)[C@H]1O[C@@H](n2cnc3c(NCCOC)nc(-c4cncc(Cl)c4)nc32)[C@H](O)[C@@H]1O` [compound 288, (2S,3S,4R,5R)-5-(2-(5-chloropyridin-3-yl)-6-((2-methoxyethyl)amino)-9H-purin-9-yl)-3,4-dihydroxyl-N-(methyl-d3)-tetrahydrofuran-2-carboxamide], the “AUC_D” value was 118.00 kg·ng·h/mL/mg.
With `CCNC(=O)[C@H]1O[C@@H](n2cnc3c(NCc4ccccc4)nc(-c4cncc(Cl)c4)nc32)[C@H](O)[C@@H]1O` [compound 242, (2S,3S,4R,5R)-5-(6-(benzylamino)-2-(5-chloropyridin-3-yl)-9H-purin-9-yl)-N-ethyl-3,4-dihydroxyltetrahydrofuran-2-carboxamide] the “AUC_D” value was 811.33 kg·ng·h/mL/mg.
For `CCNC(=O)[C@H]1O[C@@H](n2cnc3c(NC)nc(-c4ccoc4)nc32)[C@H](O)[C@@H]1O` [compound 74, (2S,3S,4R,5R)-N-ethyl-5-(2-(furan-3-yl)-6-(methylamino)-9H-purin-9-yl)-3,4-dihydroxyltetrahydrofuran-2-carboxamide], the “AUC_D” value was 213.00 kg·ng·h/mL/mg.
